Results on three compounds are retold here after patent US10183931B2, “Rho kinase inhibitors” (priority 2012, dated 2019).

In one assay the target is ROCK1 (Homo sapiens (Human), UniProt Q13464). To be noted: read-out: ROCK1 IC50; Z′-LYTE, 5 uM ATP.
The target in the next assay is ROCK2 (Homo sapiens (Human), UniProt O75116). To be noted: read-out: ROCK2 IC50; Z′-LYTE, 12 uM ATP.
Assay [1] has as its system human CD4+ T cells. Description: T cell proliferation in response to TCR stimulation in vitro. It counts as cell-based.
Assay [2] relates to human CD4+ T cells. Description: cytokine secretion by anti-CD3/CD28 stimulated CD4+ T cells in vitro. It counts as cell-based. To be noted: anti-CD3/CD28 stimulation.
The subject of assay [3] is CD4+ T cells from RA patients. Description: cytokine secretion ex vivo by CD3/CD28 stimulated CD4+ T cells from RA patients. Type of assay: cell-based, human.
For assay [4], the system named is human CD4+ T cells. The assay is described as follows: Foxp3+ cells among CD4+ T cells after Th17 skewing activation. To be noted: 5 days Th17 skewing activation. Type of assay: cell-based.
Another assay deals with STAT3 phosphorylation. Description: STAT3 phosphorylation in T cells. It counts as cell-based, human.
The next assay has as its system human Tregs. Description: Treg suppression of IL-17 secretion in CD4+CD25- effector T cells. Type of assay: cell-based. To be noted: Tregs treated 3 hours; Treg:Teff 1:4 and 1:9.
Assay [5] deals with TGF-β-induced phosphorylation. Description: TGF-β-induced phosphorylation of STAT3, MLC and SMAD2/3 in Tregs. Type of assay: cell-based, human.
The mark [6] stands for this setting: RA patients, ex vivo, TCR stimulation.

Entries after “also recorded” stand apart in the source; their conditions may differ.

For orientation: IC50 means the concentration needed to halve the response being measured.

Sequence of ROCK1 (Q13464 1-535 limits assumed): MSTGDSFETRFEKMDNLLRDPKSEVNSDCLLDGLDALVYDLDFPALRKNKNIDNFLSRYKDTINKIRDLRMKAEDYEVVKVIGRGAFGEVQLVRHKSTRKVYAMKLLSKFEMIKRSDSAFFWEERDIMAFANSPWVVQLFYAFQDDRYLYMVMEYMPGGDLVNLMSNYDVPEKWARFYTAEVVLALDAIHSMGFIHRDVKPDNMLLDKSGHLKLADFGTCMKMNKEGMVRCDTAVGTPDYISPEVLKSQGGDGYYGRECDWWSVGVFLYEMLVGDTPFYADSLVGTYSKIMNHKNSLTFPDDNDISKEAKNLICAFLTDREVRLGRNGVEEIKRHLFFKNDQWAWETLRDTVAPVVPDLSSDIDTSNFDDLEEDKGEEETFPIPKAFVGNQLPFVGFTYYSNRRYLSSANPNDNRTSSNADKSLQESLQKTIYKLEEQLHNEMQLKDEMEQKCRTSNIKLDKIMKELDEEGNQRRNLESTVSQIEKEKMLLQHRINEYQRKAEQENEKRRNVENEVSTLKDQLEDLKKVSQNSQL
Sequence of ROCK2 (O75116 5-554 limits assumed): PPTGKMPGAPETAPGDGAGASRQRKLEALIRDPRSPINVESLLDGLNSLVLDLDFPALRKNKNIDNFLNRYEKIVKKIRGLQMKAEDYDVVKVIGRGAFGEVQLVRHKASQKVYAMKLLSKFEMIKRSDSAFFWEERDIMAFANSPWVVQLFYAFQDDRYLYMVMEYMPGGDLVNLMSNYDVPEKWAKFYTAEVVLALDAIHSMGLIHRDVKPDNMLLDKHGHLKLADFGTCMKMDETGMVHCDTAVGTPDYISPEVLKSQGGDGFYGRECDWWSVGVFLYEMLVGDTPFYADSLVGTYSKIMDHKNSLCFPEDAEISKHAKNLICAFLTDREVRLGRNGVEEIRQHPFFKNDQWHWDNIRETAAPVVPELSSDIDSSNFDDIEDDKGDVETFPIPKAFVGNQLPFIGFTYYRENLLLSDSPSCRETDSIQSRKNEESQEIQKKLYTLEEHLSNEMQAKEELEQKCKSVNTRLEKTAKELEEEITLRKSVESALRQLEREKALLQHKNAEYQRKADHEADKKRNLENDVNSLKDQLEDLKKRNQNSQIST
From the text for ROCK1: (§1) Dose response curves for Rho-kinase inhibition were derived from a Invitrogen Z′-LYTE™ Kinase Assay Kit (Invitrogen catalog number PV3793). Purified active ROCK1 and ROCK2 were obtained from Invitrogen (catalog numbers ROCK1, PV3691 and ROCK2, PV3759). The kit components include a coumarin and fluorescein labeled peptide based on myosin light chain 2 ([sequence]), a proprietary protease containing development reagent and a proprietary Stop buffer used to terminate the development reaction. The inhibitory activities of compounds are measured according to the manufactures protocol. Briefly, decreasing concentrations of test compounds or the known ROCK inhibitor Y-27963, are added, from 10 uM to 2.56×10^−5 uM to reaction buffer containing 50 mM HEPES pH 7.5, 10 mM MgCl2, 5 mM EGTA, and 0.05% Brij-35 and of ROCK1 at 0.18 ug/mL or ROCK2 at 0.8 ug/mL in assay dilution buffer. […] STOP reagent is then added and the reaction and immediately the coumarin and fluorescein emission signals are read on a Tecan Infinite M1000 fluorescence plate reader (excitation: 400 nm; emission 445 and 520 nm, respectively). By comparing the emission ratios of the test samples against control samples, percent phosphorylation values are calculated and the concentration of inhibitor that produces 1/2 inhibition of kinase activity (IC50) is determined using Prism.
From the text for ROCK2: as §1

Turning to `CC(C)NC(=O)COc1cccc(-c2nc(Nc3ccc4[nH]ncc4c3)cc(C(F)(F)F)n2)c1` [Example 169], the half-inhibitory concentration (IC50) on ROCK1 and on ROCK2 was more than 10 µM each time.
For `CC(N)c1cccc(-c2nccc(Nc3ccc4[nH]ncc4c3)n2)c1` (centres unmarked) [Example 147, N-(2-(3-(1-aminoethyl)phenyl)pyrimidin-4-yl)-1H-indazol-5-amine], the half-inhibitory concentration (IC50) is more than 2 µM at ROCK1 and more than 5.5 µM on ROCK2.
For `CC(C)NC(=O)COc1cccc(-c2nc(Nc3ccc4[nH]ncc4c3)c3ccccc3n2)c1` [KD025], the “ability to proliferate in response to TCR stimulation” value with human CD4+ T cells [1] is on record as “inhibits; also recorded: down-regulated”. In the assay on human CD4+ T cells [2], the “inhibition of IFN-γ secretion” value is “less robust and significant only at high dose (10 μM)”; the “inhibition of IL-2 secretion” value is listed as “observed only at the highest concentration (10 μM)”. Moreover, in the assay on human CD4+ T cells [2] (dose-dependent), the IL-17 secretion entry is “inhibits; also recorded: significantly inhibited” and the IL-21 secretion entry is recorded as “inhibits; also recorded: significantly inhibited”. Also, the “frequencies of IL-17 and IFN-γ-producing cells” value in [3] (2 RA patients, intracellular staining) was “significantly reduced”. Besides, in [3] (setting [6]), the “secretion of IFN-γ” value is listed as “inhibits; also recorded: significantly down-regulated”, the “secretion of IL-17” value is “inhibits; also recorded: significantly down-regulated” and the “secretion of IL-21” value is listed as “inhibits; also recorded: significantly down-regulated”. Further, the “percentage of Foxp3+ cells” value in the assay with human CD4+ T cells [4] is listed as “significantly increased”. In addition, the “phosphorylation of STAT3” value in the assay with STAT3 phosphorylation (T cells, two experimental designs) is on record as “inhibits; also recorded: significantly down-regulates”. For the same compound, the STAT3 phosphorylation entry in the assay on STAT3 phosphorylation (Th17-skewing conditions 5 days, then treatment 3 hours) is given as “reduced”. For the same compound, the “ability of Tregs to suppress IL-17 secretion in CD4+CD25- effector T cells” value in the assay on human Tregs is “significantly increased”. Besides, the “phosphorylation of SMAD2/3” value in assay [5] is “remains intact”. In addition, in [5] (dose-dependent), the “TGF-β-induced MLC phosphorylation” value is recorded as “down-regulates” and the “TGF-β-induced STAT3 phosphorylation” value was “down-regulates”.
